Experimental data reported in US7273848B2, “Apolipoprotein A-I agonists and their use to treat dyslipidemic disorders” (priority 1997, dated 2007).
Non-standard residues stand in square brackets, D forms with d. Residues, ends and D or L forms follow the SMILES beside them. No end group written: not given here. 1Nal = N[C@@H](Cc1cccc2ccccc12)C(=O)O; Aib = CC(C)(N)C(=O)O

Experiments:
[1] = biological target: T1, LCAT (purified from human plasma) (Homo sapiens, UniProt P04180); assay: LCAT activation assay; format: biochemical; conditions: LCAT activation as compared with native human ApoA-I (= 100%), equivalent masses
T1 construct: from tissue; host or cells: human plasma
T1 sequence (P04180 25-440): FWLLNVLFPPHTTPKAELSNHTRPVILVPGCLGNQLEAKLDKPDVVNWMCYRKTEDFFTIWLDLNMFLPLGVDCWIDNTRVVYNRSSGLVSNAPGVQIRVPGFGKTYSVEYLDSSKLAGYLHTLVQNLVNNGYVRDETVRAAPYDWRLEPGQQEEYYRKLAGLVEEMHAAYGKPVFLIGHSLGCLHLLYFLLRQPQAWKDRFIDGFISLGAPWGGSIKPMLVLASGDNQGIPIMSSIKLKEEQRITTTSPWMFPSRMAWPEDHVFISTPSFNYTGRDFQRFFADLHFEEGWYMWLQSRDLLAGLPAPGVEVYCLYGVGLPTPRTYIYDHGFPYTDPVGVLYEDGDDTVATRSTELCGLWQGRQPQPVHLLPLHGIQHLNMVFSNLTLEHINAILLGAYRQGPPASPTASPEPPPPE
Summary of the method: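 Activity was expressed as percentage conversion of radiolabelled cholesterol to cholesteryl ester, normalised to native ApoA-I as 100%. LCAT purified from human plasma was added to peptide-preincubated EPC or POPC/cholesterol (20:1) small unilamellar vesicles at pH 7.4. Specific activity is the peptide concentration reaching the conversion plateau at a fixed timepoint.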

[2] = Circular dichroism helicity determination; format: physicochemical; conditions: percent helicity; for He (%) TFE: 5 μM peptide, 90% vol TFE; for He (%) TFE / He (%) SUVs: 37° C.; for He (%) free: unbound peptide 5 μM in 5 mM phosphate buffer, pH 7.4, 37° C.; for He (%) SUVs: peptide-SUV complexes (20:1 EPC:Chol., Ri=30 and Ri=50); for He (%) mics: peptide-micelle complexes, Ri=100, 37° C.
Summary of the method: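 Far-UV CD (190–260 nm) at 37° C on 5 μM peptide in 5 mM phosphate pH 7.4, free, with EPC:Chol 20:1 SUVs (Ri 30 or 50), lysophosphatidylcholine micelles (Ri 100) or 90% TFE. Spectra converted to molar ellipticity per residue; helicity from 222 nm ellipticity or CONTIN fitting to reference spectra, ±5%.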

| Compound | ACTIVITY (%) LCAT [1] [%] | He (%) TFE [2] [%] | He (%) free [2] [%] | He (%) SUVs [2] [%] | He (%) mics [2] [%] |
| --- | --- | --- | --- | --- | --- |
| CC(C)C[C@H](NC(=O)[C@H](C)NC(=O)[C@H](CCC(=O)O)NC(=O)[C@H](CC(C)C)NC(=O)[C@H](CC(C)C)NC(=O)[C@H](CCC(=O)O)NC(=O)[C@H](CC(N)=O)NC(=O)[C@H](CC(C)C)NC(=O)[C@H](CC(C)C)NC(=O)[C@H](CCC(=O)O)NC(=O)[C@H](CCCNC(=N)N)NC(=O)[C@H](Cc1ccccc1)NC(=O)[C@H](Cc1cccc2ccccc12)NC(=O)[C@H](CC(=O)O)NC(=O)[C@H](CC(C)C)NC(=O)[C@@H](NC(=O)[C@@H]1CCCN1)C(C)C)C(=O)N[C@@H](CCCCN)C(=O)N[C@@H](CCC(N)=O)C(=O)N[C@@H](CCCCN)C(=O)N[C@@H](CC(C)C)C(=O)N[C@@H](CCCCN)C(=O)O [compound 34, PVLDZFRELLNELLEALKQKLK] (H-PVLD[1Nal]FRELLNELLEALKQKLK-OH) | 32 | 62 | 58 | 68 | 67 |
| Ac-PVLDLFRELWEELKQKLK-NH2 [compound 199] | 76 | 79 | 35 | 80 | 77 |
| CC(C)C[C@H](NC(=O)[C@H](C)NC(=O)[C@H](CCC(=O)O)NC(=O)[C@H](CC(C)C)NC(=O)C(C)(C)NC(=O)[C@H](CCC(=O)O)NC(=O)[C@H](CC(N)=O)NC(=O)[C@H](CC(C)C)NC(=O)[C@H](CCCCN)NC(=O)[C@H](CCC(=O)O)NC(=O)[C@H](CCCNC(=N)N)NC(=O)[C@H](Cc1ccccc1)NC(=O)[C@H](CC(C)C)NC(=O)[C@H](CC(=O)O)NC(=O)[C@H](CC(C)C)NC(=O)[C@@H](NC(=O)[C@@H]1CCCN1)C(C)C)C(=O)N[C@@H](CCCCN)C(=O)N[C@@H](CCC(N)=O)C(=O)N[C@@H](CCCCN)C(=O)N[C@@H](CC(C)C)C(=O)N[C@@H](CCCCN)C(=O)O [compound 46, PVLDLFREKLNEXLEALKQKLK] (H-PVLDLFREKLNE[Aib]LEALKQKLK-OH) | 23 | 85 | 30 | 58 | 86 |
| CC(C)C[C@H](NC(=O)[C@H](C)NC(=O)[C@H](CCC(=O)O)NC(=O)[C@H](CC(C)C)NC(=O)C(C)(C)NC(=O)[C@H](CCC(=O)O)NC(=O)[C@H](CC(N)=O)NC(=O)[C@H](CC(C)C)NC(=O)[C@H](CC(C)C)NC(=O)[C@H](CCC(=O)O)NC(=O)[C@H](CCCNC(=N)N)NC(=O)[C@H](Cc1ccccc1)NC(=O)[C@H](CC(C)C)NC(=O)[C@H](CC(=O)O)NC(=O)[C@H](CC(C)C)NC(=O)[C@@H](NC(=O)[C@@H]1CCCN1)C(C)C)C(=O)N[C@@H](CCCCN)C(=O)N[C@@H](CCC(N)=O)C(=O)N[C@@H](CCCCN)C(=O)N[C@@H](CC(C)C)C(=O)N[C@@H](CCCCN)C(=O)O [compound 6, PVLDLFRELLNEXLEALKQKLK] (H-PVLDLFRELLNE[Aib]LEALKQKLK-OH) | 80 | 99 | 57 | 70 | 93 |
| CC(C)C[C@@H](NC(=O)[C@H](N)CCCCN)C(=O)N[C@H](CCCCN)C(=O)N[C@H](CCC(N)=O)C(=O)N[C@H](CCCCN)C(=O)N[C@H](CC(C)C)C(=O)N[C@H](C)C(=O)N[C@H](CCC(=O)O)C(=O)N[C@H](CC(C)C)C(=O)N[C@H](CC(C)C)C(=O)N[C@H](CCC(=O)O)C(=O)N[C@H](CC(N)=O)C(=O)N[C@H](CC(C)C)C(=O)N[C@H](CC(C)C)C(=O)N[C@H](CCC(=O)O)C(=O)N[C@H](CCCNC(=N)N)C(=O)N[C@H](Cc1ccccc1)C(=O)N[C@H](CC(C)C)C(=O)N[C@H](CC(=O)O)C(=O)N[C@H](CC(C)C)C(=O)N[C@@H](C(=O)N1CCC[C@@H]1C(=O)O)C(C)C [compound 107, klkqklaellenllerfldlvp] | 0 | 77 | – | – | – |
| CC(C)C[C@H](NC(=O)[C@H](C)NC(=O)[C@H](CCC(=O)O)NC(=O)[C@H](CC(C)C)NC(=O)C(C)(C)NC(=O)[C@H](CCC(=O)O)NC(=O)[C@H](Cc1ccc(O)cc1)NC(=O)[C@H](CC(C)C)NC(=O)[C@H](CC(C)C)NC(=O)[C@H](CCC(=O)O)NC(=O)[C@H](CCCNC(=N)N)NC(=O)[C@H](Cc1ccccc1)NC(=O)[C@H](CCC(=O)O)NC(=O)[C@H](CC(=O)O)NC(=O)[C@H](CC(C)C)NC(=O)[C@@H](NC(=O)[C@@H]1CCCN1)C(C)C)C(=O)N[C@@H](CCCCN)C(=O)N[C@@H](CCC(N)=O)C(=O)N[C@@H](CCCCN)C(=O)N[C@@H](CC(C)C)C(=O)N[C@@H](CCCCN)C(=O)O [compound 70, PVLDEFRELLYEXLEALKQKLK] (H-PVLDEFRELLYE[Aib]LEALKQKLK-OH) | 12 | 66 | 27 | 33 | 78 |
| PVLDLFRELLNELLEALKQ [compound 60] | 16 | 84 | 39 | 66 | 83 |
| CC(C)C[C@H](NC(=O)[C@H](C)NC(=O)[C@H](CCC(=O)O)NC(=O)[C@H](CC(C)C)NC(=O)[C@H](CC(C)C)NC(=O)[C@H](CCC(=O)O)NC(=O)[C@H](CC(N)=O)NC(=O)[C@H](CC(C)C)NC(=O)[C@H](CC(C)C)NC(=O)[C@H](CCC(=O)O)NC(=O)[C@H](CCCNC(=N)N)NC(=O)[C@H](Cc1ccccc1)NC(=O)[C@H](CC(C)C)NC(=O)[C@H](CC(=O)O)NC(=O)[C@H](CC(C)C)NC(=O)[C@@H](NC(=O)[C@@H]1CCCN1)C(C)C)C(=O)N[C@@H](CCCN)C(=O)N[C@@H](CCC(N)=O)C(=O)N[C@@H](CCCN)C(=O)N[C@@H](CC(C)C)C(=O)N[C@@H](CCCN)C(=O)O [peptide 14, PVLDLFRELLNELLEALOQOLO] | 61 | – | 70 | 80 | 96 |
| Ac-PVLELFRELLEELKQKLK-NH2 [compound 194] | 88 | 93 | 38 | – | 93 |
| CC(C)C[C@H](NC(=O)[C@H](C)NC(=O)[C@H](CCC(=O)O)NC(=O)[C@H](Cc1c[nH]c2ccccc12)NC(=O)C(C)(C)NC(=O)[C@H](CCC(=O)O)NC(=O)[C@H](CC(N)=O)NC(=O)[C@H](CC(C)C)NC(=O)[C@H](CCCCN)NC(=O)[C@H](CCC(=O)O)NC(=O)[C@H](CCCNC(=N)N)NC(=O)[C@H](Cc1ccccc1)NC(=O)[C@H](CCC(=O)O)NC(=O)[C@H](CC(=O)O)NC(=O)[C@H](CC(C)C)NC(=O)[C@@H](NC(=O)[C@@H]1CCCN1)C(C)C)C(=O)N[C@@H](CCCCN)C(=O)N[C@@H](CCC(N)=O)C(=O)N[C@@H](CCCCN)C(=O)N[C@@H](CC(C)C)C(=O)N[C@@H](CCCCN)C(=O)O [compound 42, PVLDEFREKLNEXWEALKQKLK] (H-PVLDEFREKLNE[Aib]WEALKQKLK-OH) | 25 | 76 | 15 | 27 | 74 |
| PVLELFENWLERLLDALQKKLK [compound 162] | 27 | – | 68 | 81 | 83 |
| CC(C)C[C@@H](NC(=O)[C@@H](C)NC(=O)[C@@H](CCC(=O)O)NC(=O)[C@@H](CC(C)C)NC(=O)[C@@H](CC(C)C)NC(=O)[C@@H](CCC(=O)O)NC(=O)[C@@H](CC(N)=O)NC(=O)[C@@H](CC(C)C)NC(=O)[C@@H](CC(C)C)NC(=O)[C@@H](CCC(=O)O)NC(=O)[C@@H](CCCNC(=N)N)NC(=O)[C@@H](Cc1ccccc1)NC(=O)[C@@H](CC(C)C)NC(=O)[C@@H](CC(=O)O)NC(=O)[C@@H](CC(C)C)NC(=O)[C@H](NC(=O)[C@H]1CCCN1)C(C)C)C(=O)N[C@H](CCCCN)C(=O)N[C@H](CCC(N)=O)C(=O)N[C@H](CCCCN)C(=O)N[C@H](CC(C)C)C(=O)N[C@H](CCCCN)C(=O)O [compound 100, pvldlfrellnellealkqklk] | 2 | 98 | 83 | – | 92 |
| PVLDEFREKLNERLEALKQKLK [peptide 109, reference compound] | 0 | 58 | 19 | 23 | 45 |
| PVLDLFRELLNELLEWLKQKLK [compound 3] | 98 | 95 | 70 | 80 | 95 |
